Experimental data from patent US20230346961A1, “GLP-1 AND GIP RECEPTOR CO-AGONISTS” (Novo Nordisk A/S, priority 2020, published 2023).
Starred links: 1 amine or outer side, 2 acyl side, 3 side chain; linkers in the order of their positions; H or OH if unused. Non-standard residues stand in square brackets, D forms with d. Residues, ends and D or L forms follow the SMILES beside them. Groups on a side chain read outwards from the residue. *: point of attachment. C20 diacid = O=C(O)CCCCCCCCCCCCCCCCCCC(=O)*; C18 diacid = O=C(O)CCCCCCCCCCCCCCCCC(=O)*; γGlu = O=C(O)[C@H](CCC(=O)[*:2])N[*:1]; εLys = N[C@@H](CCCCN[*:1])C(=O)[*:2]; Trx = NC[C@H]1CC[C@H](C(=O)O)CC1; AEEA = NCCOCCOCC(=O)O; Aib = CC(C)(N)C(=O)O

Legend:
human GLP-1 receptor = human GLP-1 receptor (Homo sapiens, UniProt P43220); assay: cell-based; details: hGLP-1R
Experimental: (§1) The in vitro functional potency is the measure of target receptor activation in a whole cell assay.
(§2) In vitro functional potency was determined by measuring the response of the target receptor in a reporter gene assay in individual cell lines. […] When the respective receptor is activated, it results in the production of cAMP, which in turn results in expression of the luciferase protein. When assay incubation is completed, luciferase substrate (luciferin) is added resulting in the enzymatic conversion of luciferin to oxyluciferin and producing bioluminescence. The luminescence is measured as the readout for the assay.
(§3) The cells lines used in these assays were BHK cells with BHKTS13 as a parent cell line. The cell lines were derived from a clone containing the CRE luciferase element and were established by further transfection with the respective receptor to obtain the relevant cell line.
(§4) The cells were cultured at 37° C. with 5% CO2 in Cell Culture Medium. They were aliquoted and stored in liquid nitrogen. The cells were kept in continuous culture and were seeded out the day before each assay.
(§5) GLP-1R and GcgR Cell Culture Medium consisted of DMEM medium with 10% FBS, 500 μg/mL G418, and 300 μg/mL hygromycin. GIPR Cell Culture Medium consisted of DMEM medium with 10% FBS, 400 μg/mL G418, and 300 μg/mL hygromycin. Assay Buffer consisted of DMEM w/o phenol red, 10 mM Hepes, 1×Glutamax, 1% ovalbumin, and 0.1% Pluronic F-68 with the addition of HSA at twice the final assay concentration.
(§6) • 1) Cells were plated at 5000 cells/well and incubated overnight in the assay plate. • 2) Cells were washed once in DPBS. • 3) Stocks of the test compounds and reference compounds in concentrations ranging from 100-300 μM were diluted 1:150 in Assay Buffer. Compounds were then diluted 1:10 in column 1 of a 96 deep well dilution plate and then carried across the row creating a 3.5 fold, 12 point dilution curve. • 4) Assay Buffer (50 μl aliquot) with or without HSA was added to each well in the assay plate. • 5) A 50 μl aliquot of compound or blank was transferred from the dilution plate to the assay plate containing the Assay Buffer with or without HSA. • 6) The assay plate was incubated for 3 h in a 5% CO2 incubator at 37° C. 7) The cells were washed once with DPBS. • 8) A 100 μl aliquot of DPBS was added to each well of the assay plate. • 9) A 100 μl aliquot of steadylite plus reagent (light sensitive) was added to each well of the assay plate. • 10) Each assay plate was covered with aluminum foil to protect it from light and shaken at 250 RPM for 30 min at room temperature. • 11) Each assay plate was read in a microtiter plate reader.
(§7) The data from the microtiter plate reader was first regressed in an Excel in order to calculate the x-axis, log scale concentrations based on the individual test compound's stock concentration and the dilutions of the assay. […] The software performs a non-linear regression (log(agonist) vs response). A minimum of two replicates was measured for each sample. The reported values are averages of the replicates.

mouse GIP receptor = biological target: T1, mouse GIP receptor (Mus musculus, UniProt Q0P543); assay: cell-based
T1 sequence (Q0P543 19-460): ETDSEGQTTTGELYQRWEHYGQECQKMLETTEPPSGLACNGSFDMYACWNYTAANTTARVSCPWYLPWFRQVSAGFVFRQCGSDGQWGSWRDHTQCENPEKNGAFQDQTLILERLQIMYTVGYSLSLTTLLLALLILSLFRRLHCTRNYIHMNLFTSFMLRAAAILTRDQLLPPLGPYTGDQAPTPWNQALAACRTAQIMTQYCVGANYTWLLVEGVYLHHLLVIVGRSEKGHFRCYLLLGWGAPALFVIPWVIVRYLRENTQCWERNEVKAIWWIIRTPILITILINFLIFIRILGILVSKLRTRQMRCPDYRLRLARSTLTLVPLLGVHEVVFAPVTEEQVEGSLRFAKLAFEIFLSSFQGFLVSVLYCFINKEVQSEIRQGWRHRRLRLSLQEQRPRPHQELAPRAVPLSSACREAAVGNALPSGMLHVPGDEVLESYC
Experimental: as §1, §2, §3, §4, §5, §6, §7

mouse GLP-1 receptor = biological target: T2, mouse GLP-1 receptor (Mus musculus, UniProt O35659)
T2 sequence (O35659 22-463): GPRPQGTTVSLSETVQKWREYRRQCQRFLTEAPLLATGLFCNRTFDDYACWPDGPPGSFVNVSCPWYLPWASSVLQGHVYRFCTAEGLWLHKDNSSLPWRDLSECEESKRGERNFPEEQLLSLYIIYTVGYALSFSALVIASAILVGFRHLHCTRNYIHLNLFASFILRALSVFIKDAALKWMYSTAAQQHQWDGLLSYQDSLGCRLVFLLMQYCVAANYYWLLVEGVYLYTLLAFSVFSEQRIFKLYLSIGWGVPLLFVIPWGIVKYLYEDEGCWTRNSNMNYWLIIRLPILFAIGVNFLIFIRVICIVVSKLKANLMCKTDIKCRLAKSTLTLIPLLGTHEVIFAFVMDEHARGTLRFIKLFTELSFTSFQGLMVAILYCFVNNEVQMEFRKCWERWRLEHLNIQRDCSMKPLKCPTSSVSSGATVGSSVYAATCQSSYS
Experimental: as §1, §2, §3, §4, §5, §6, §7

human GLP-1 receptor, sequence (P43220 24-463): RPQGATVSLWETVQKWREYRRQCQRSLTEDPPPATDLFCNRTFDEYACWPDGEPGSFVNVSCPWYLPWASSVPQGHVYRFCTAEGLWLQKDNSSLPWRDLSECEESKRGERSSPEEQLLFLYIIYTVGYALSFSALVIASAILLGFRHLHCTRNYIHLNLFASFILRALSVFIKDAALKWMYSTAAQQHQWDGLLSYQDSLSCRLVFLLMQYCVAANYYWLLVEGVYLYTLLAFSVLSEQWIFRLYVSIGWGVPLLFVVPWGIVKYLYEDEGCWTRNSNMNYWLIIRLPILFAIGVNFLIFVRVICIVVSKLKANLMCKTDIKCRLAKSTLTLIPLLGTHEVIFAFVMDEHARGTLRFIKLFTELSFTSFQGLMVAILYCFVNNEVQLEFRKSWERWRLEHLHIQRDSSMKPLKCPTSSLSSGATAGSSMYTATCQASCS

SMILES	EC50 (human GLP-1 receptor; CRE Luc 0% HSA EC50, 0% HSA) [nM]	EC50 (human GLP-1 receptor; CRE Luc 1% HSA EC50, 1% HSA) [nM]	EC50 (mouse GIP receptor) [nM]	EC50 (mouse GLP-1 receptor) [nM]
CC[C@H](C)[C@H](NC(=O)[C@H](CO)NC(=O)[C@H](Cc1ccc(O)cc1)NC(=O)[C@H](CC(=O)O)NC(=O)[C@H](CO)NC(=O)[C@@H](NC(=O)[C@H](Cc1ccccc1)NC(=O)[C@@H](NC(=O)CNC(=O)[C@H](CCC(=O)O)NC(=O)C(C)(C)NC(=O)[C@@H](N)Cc1ccc(O)cc1)[C@@H](C)O)[C@@H](C)O)C(=O)N[C@@H](Cc1ccc(O)cc1)C(=O)N[C@@H](CC(C)C)C(=O)N[C@@H](CC(=O)O)C(=O)N[C@@H](CCCCN)C(=O)N[C@@H](CCC(N)=O)C(=O)N[C@@H](C)C(=O)N[C@@H](C)C(=O)NC(C)(C)C(=O)N[C@@H](CCCCNC(=O)COCCOCCNC(=O)COCCOCCNC(=O)CC[C@H](NC(=O)CCCCCCCCCCCCCCCCC(=O)O)C(=O)O)C(=O)N[C@@H](Cc1ccccc1)C(=O)N[C@H](C(=O)N[C@@H](CC(N)=O)C(=O)N[C@@H](Cc1c[nH]c2ccccc12)C(=O)N[C@@H](CC(C)C)C(=O)N[C@@H](CC(C)C)C(=O)N[C@@H](C)C(=O)NCC(=O)NCC(=O)N1CCC[C@H]1C(=O)N[C@@H](CO)C(=O)N[C@@H](CO)C(=O)NCC(=O)N[C@@H](C)C(=O)N1CCC[C@H]1C(=O)N1CCC[C@H]1C(=O)N1CCC[C@H]1C(=O)N[C@@H](CO)C(N)=O)C(C)C [Compound 5] (H-Y[Aib]EGTFTSDYSIYLDKQAA[Aib]K([AEEA-AEEA-γGlu-C18 diacid])FVNWLLAGGPSSGAPPPS-NH2; N-terminus assumed)	0.0092	0.161	0.523	0.0025
CC[C@H](C)[C@H](NC(=O)[C@H](CO)NC(=O)[C@H](Cc1ccc(O)cc1)NC(=O)[C@H](CC(=O)O)NC(=O)[C@H](CO)NC(=O)[C@@H](NC(=O)[C@H](Cc1ccccc1)NC(=O)[C@@H](NC(=O)CNC(=O)[C@H](CCC(=O)O)NC(=O)C(C)(C)NC(=O)[C@@H](N)Cc1ccc(O)cc1)[C@@H](C)O)[C@@H](C)O)C(=O)N[C@@H](Cc1ccc(O)cc1)C(=O)N[C@@H](CC(C)C)C(=O)N[C@@H](CCC(=O)O)C(=O)N[C@@H](CCCCN)C(=O)N[C@@H](CCC(N)=O)C(=O)N[C@@H](C)C(=O)N[C@@H](C)C(=O)NC(C)(C)C(=O)N[C@@H](CCCCNC(=O)COCCOCCNC(=O)COCCOCCNC(=O)CC[C@H](NC(=O)[C@H]1CC[C@H](CNC(=O)CCCCCCCCCCCCCCCCCCC(=O)O)CC1)C(=O)O)C(=O)N[C@@H](Cc1ccccc1)C(=O)N[C@H](C(=O)N[C@@H](CC(N)=O)C(=O)N[C@@H](Cc1c[nH]c2ccccc12)C(=O)N[C@@H](CC(C)C)C(=O)N[C@@H](CC(C)C)C(=O)N[C@@H](C)C(=O)NCC(=O)NCC(=O)N1CCC[C@H]1C(=O)N[C@@H](CO)C(=O)N[C@@H](CO)C(=O)NCC(=O)N[C@@H](C)C(N)=O)C(C)C [Compound 32] (H-Y[Aib]EGTFTSDYSIYLEKQAA[Aib]K([AEEA-AEEA-γGlu-Trx-C20 diacid])FVNWLLAGGPSSGA-NH2; N-terminus assumed)	0.0117	0.221	0.0802	0.0025
CC[C@H](C)[C@H](NC(=O)[C@H](CO)NC(=O)[C@H](Cc1ccc(O)cc1)NC(=O)[C@H](CC(=O)O)NC(=O)[C@H](CO)NC(=O)[C@@H](NC(=O)[C@H](Cc1ccccc1)NC(=O)[C@@H](NC(=O)CNC(=O)[C@H](CCC(=O)O)NC(=O)C(C)(C)NC(=O)[C@@H](N)Cc1ccc(O)cc1)[C@@H](C)O)[C@@H](C)O)C(=O)N[C@@H](Cc1ccc(O)cc1)C(=O)N[C@@H](CC(C)C)C(=O)N[C@@H](CCC(=O)O)C(=O)N[C@@H](CCCCN)C(=O)N[C@@H](CCC(N)=O)C(=O)N[C@@H](C)C(=O)N[C@@H](C)C(=O)NC(C)(C)C(=O)N[C@@H](CCCCNC(=O)[C@@H](N)CCCCNC(=O)[C@@H](N)CCCCNC(=O)CC[C@H](NC(=O)CCCCCCCCCCCCCCCCC(=O)O)C(=O)O)C(=O)N[C@@H](Cc1ccccc1)C(=O)N[C@H](C(=O)N[C@@H](CC(N)=O)C(=O)N[C@@H](Cc1c[nH]c2ccccc12)C(=O)N[C@@H](CC(C)C)C(=O)N[C@@H](CC(C)C)C(=O)N[C@@H](C)C(=O)NCC(=O)NCC(=O)N1CCC[C@H]1C(=O)N[C@@H](CO)C(=O)N[C@@H](CO)C(=O)NCC(=O)N[C@@H](C)C(N)=O)C(C)C [Compound 18] (H-Y[Aib]EGTFTSDYSIYLEKQAA[Aib]K([εLys-εLys-γGlu-C18 diacid])FVNWLLAGGPSSGA-NH2; N-terminus assumed)	0.0033	0.0899	0.0243	0.002
CC[C@H](C)[C@H](NC(=O)[C@H](CO)NC(=O)[C@H](Cc1ccc(O)cc1)NC(=O)[C@H](CC(=O)O)NC(=O)[C@H](CO)NC(=O)[C@@H](NC(=O)[C@H](Cc1ccccc1)NC(=O)[C@@H](NC(=O)CNC(=O)[C@H](CCC(=O)O)NC(=O)C(C)(C)NC(=O)[C@@H](N)Cc1ccc(O)cc1)[C@@H](C)O)[C@@H](C)O)C(=O)N[C@@H](Cc1ccc(O)cc1)C(=O)N[C@@H](CC(C)C)C(=O)N[C@@H](CC(=O)O)C(=O)N[C@@H](CCCCN)C(=O)N[C@@H](CCC(N)=O)C(=O)N[C@@H](C)C(=O)N[C@@H](C)C(=O)NC(C)(C)C(=O)N[C@@H](CCC(=O)O)C(=O)N[C@@H](Cc1ccccc1)C(=O)N[C@H](C(=O)N[C@@H](CC(N)=O)C(=O)N[C@@H](Cc1c[nH]c2ccccc12)C(=O)N[C@@H](CC(C)C)C(=O)N[C@@H](CC(C)C)C(=O)N[C@@H](C)C(=O)NCC(=O)NCC(=O)N1CCC[C@H]1C(=O)N[C@@H](CO)C(=O)N[C@@H](CO)C(=O)NCC(=O)N[C@@H](C)C(=O)N1CCC[C@H]1C(=O)N1CCC[C@H]1C(=O)N1CCC[C@H]1C(=O)N[C@@H](CO)C(=O)N[C@@H](CCCCNC(=O)[C@@H](N)CCCCNC(=O)[C@@H](N)CCCCNC(=O)CC[C@H](NC(=O)CCCCCCCCCCCCCCCCC(=O)O)C(=O)O)C(N)=O)C(C)C [Compound 10]	0.0182	0.298	0.259	0.0021
CC[C@H](C)[C@H](NC(=O)[C@H](CO)NC(=O)[C@H](Cc1ccc(O)cc1)NC(=O)[C@H](CC(=O)O)NC(=O)[C@H](CO)NC(=O)[C@@H](NC(=O)[C@H](Cc1ccccc1)NC(=O)[C@@H](NC(=O)CNC(=O)[C@H](CCC(=O)O)NC(=O)C(C)(C)NC(=O)[C@@H](N)Cc1ccc(O)cc1)[C@@H](C)O)[C@@H](C)O)C(=O)N[C@@H](Cc1ccc(O)cc1)C(=O)N[C@@H](CC(C)C)C(=O)N[C@@H](CC(=O)O)C(=O)N[C@@H](CCCCN)C(=O)N[C@@H](CCCCNC(=O)COCCOCCNC(=O)COCCOCCNC(=O)CC[C@H](NC(=O)CCCCCCCCCCCCCCCCC(=O)O)C(=O)O)C(=O)N[C@@H](C)C(=O)N[C@@H](C)C(=O)NC(C)(C)C(=O)N[C@@H](CCC(=O)O)C(=O)N[C@@H](Cc1ccccc1)C(=O)N[C@H](C(=O)N[C@@H](CC(N)=O)C(=O)N[C@@H](Cc1c[nH]c2ccccc12)C(=O)N[C@@H](CC(C)C)C(=O)N[C@@H](CC(C)C)C(=O)N[C@@H](C)C(=O)NCC(=O)NCC(=O)N1CCC[C@H]1C(=O)N[C@@H](CO)C(=O)N[C@@H](CO)C(=O)NCC(=O)N[C@@H](C)C(=O)N1CCC[C@H]1C(=O)N1CCC[C@H]1C(=O)N1CCC[C@H]1C(=O)N[C@@H](CO)C(N)=O)C(C)C [Compound 4] (H-Y[Aib]EGTFTSDYSIYLDKK([AEEA-AEEA-γGlu-C18 diacid])AA[Aib]EFVNWLLAGGPSSGAPPPS-NH2; N-terminus assumed)	0.0106	0.232	1.55	0.0039
CC[C@H](C)[C@H](NC(=O)[C@H](CO)NC(=O)[C@H](Cc1ccc(O)cc1)NC(=O)[C@H](CC(=O)O)NC(=O)[C@H](CO)NC(=O)[C@@H](NC(=O)[C@H](Cc1ccccc1)NC(=O)[C@@H](NC(=O)CNC(=O)[C@H](CCC(=O)O)NC(=O)C(C)(C)NC(=O)[C@@H](N)Cc1ccc(O)cc1)[C@@H](C)O)[C@@H](C)O)C(=O)N[C@@H](Cc1ccc(O)cc1)C(=O)N[C@@H](CC(C)C)C(=O)N[C@@H](CCC(=O)O)C(=O)N[C@@H](CCC(=O)O)C(=O)N[C@@H](CCC(N)=O)C(=O)N[C@@H](C)C(=O)N[C@@H](C)C(=O)NC(C)(C)C(=O)N[C@@H](CCCCNC(=O)COCCOCCNC(=O)COCCOCCNC(=O)CC[C@H](NC(=O)CCCCCCCCCCCCCCCCCCC(=O)O)C(=O)O)C(=O)N[C@@H](Cc1ccccc1)C(=O)N[C@H](C(=O)N[C@@H](CC(N)=O)C(=O)N[C@@H](Cc1c[nH]c2ccccc12)C(=O)N[C@@H](CC(C)C)C(=O)N[C@@H](CC(C)C)C(=O)N[C@@H](C)C(=O)NCC(=O)NCC(=O)N1CCC[C@H]1C(=O)N[C@@H](CO)C(=O)N[C@@H](CO)C(=O)NCC(=O)N[C@@H](C)C(=O)N1CCC[C@H]1C(=O)N1CCC[C@H]1C(=O)N1CCC[C@H]1C(=O)N[C@@H](CO)C(N)=O)C(C)C [Compound 26] (H-Y[Aib]EGTFTSDYSIYLEEQAA[Aib]K([AEEA-AEEA-γGlu-C20 diacid])FVNWLLAGGPSSGAPPPS-NH2; N-terminus assumed)	0.0047	0.37	0.776	0.0028
